Where “and” joins values, the source holds several entries; their conditions need not be identical. Identical values can stand only once. Toxic doses and inconclusive results are not listed. Rule for the calls: active = survival T/C of 150% or more; inactive = T/C below 125% in these data.
System: CD2F1 mice, L1210 leukemia ip, survival T/C
Assay: NCI In Vivo Anticancer Drug Screen. Data for tumor model L1210 Leukemia (intraperitoneal) in CD2F1 (CDF1) mice
Conditions: higher = longer survival
Summary of the method: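 In this screen, transplantable tumors were grown in mice given either the compound or its vehicle. Results were expressed as the treated measurement relative to the control measurement.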

[1] = endpoint: mean survival time, dose: 50.0 mg/kg/injection, schedule: Q01DX009 (ip), vehicle: saline with Tween-80
[2] = endpoint: mean survival time, dose: 100.0 mg/kg/injection, schedule: Q01DX009 (ip), vehicle: saline with Tween-80
[3] = endpoint: mean survival time, dose: 200.0 mg/kg/injection, schedule: Q01DX009 (ip), vehicle: saline with Tween-80
[4] = endpoint: mean survival time, dose: 100.0 mg/kg/injection, schedule: Q04DX003 (ip), vehicle: saline
[5] = endpoint: mean survival time, dose: 200.0 mg/kg/injection, schedule: Q04DX003 (ip), vehicle: saline
[6] = endpoint: mean survival time, dose: 400.0 mg/kg/injection, schedule: Q04DX003 (ip), vehicle: saline
[7] = endpoint: mean survival time, dose: 12.5 mg/kg/injection, schedule: Q01DX009 (ip), vehicle: saline
[8] = endpoint: mean survival time, dose: 25.0 mg/kg/injection, schedule: Q01DX009 (ip), vehicle: saline with Tween-80
[9] = endpoint: mean survival time, dose: 25.0 mg/kg/injection, schedule: Q01DX009 (ip), vehicle: saline
[10] = endpoint: mean survival time, dose: 25.0 mg/kg/injection, schedule: Q04DX003 (ip), vehicle: saline
[11] = endpoint: mean survival time, dose: 50.0 mg/kg/injection, schedule: Q04DX003 (ip), vehicle: saline
[12] = endpoint: mean survival time, dose: 400.0 mg/kg/injection, schedule: Q01DX009 (ip), vehicle: saline with Tween-80
[13] = endpoint: mean survival time, dose: 100.0 mg/kg/injection, schedule: Q04DX002 (ip), vehicle: saline with Tween-80
[14] = endpoint: mean survival time, dose: 100.0 mg/kg/injection, schedule: Q04DX003 (ip), vehicle: saline with Tween-80
[15] = endpoint: mean survival time, dose: 200.0 mg/kg/injection, schedule: Q04DX003 (ip), vehicle: saline with Tween-80
[16] = endpoint: mean survival time, dose: 400.0 mg/kg/injection, schedule: Q04DX003 (ip), vehicle: saline with Tween-80

Measured: T/C

CC(C)(C)NC(=O)Cc1ccccc1
inactive: [1] 95 % of control | [2] 97 % of control | [3] 95 % of control

O=C(O)CCCc1ccc(Cl)cc1
inactive: [4] 106 % of control | [5] 106 % of control | [6] 98 % of control

CN(C)CCCN1c2ccccc2Sc2ccc(C(F)(F)F)cc21
inactive: [7] 106 % of control | endpoint: mean survival time, dose: 12.5 mg/kg/injection, schedule: Q04DX003 (ip), vehicle: saline 100 % of control | endpoint: mean survival time, dose: 16.5 mg/kg/injection, schedule: Q01DX009 (ip), vehicle: saline with Tween-80 103 % of control | endpoint: mean survival time, dose: 25.0 mg/kg/injection, schedule: Q01DX001 (ip), vehicle: saline 100 % of control | [8] 88 % of control | [9] 120 % of control | [10] 115 % of control | endpoint: mean survival time, dose: 37.5 mg/kg/injection, schedule: Q01DX009 (ip), vehicle: saline with Tween-80 94 % of control | endpoint: mean survival time, dose: 50.0 mg/kg/injection, schedule: Q01DX001 (ip), vehicle: saline 104 % of control | [11] 118 % of control

CCOc1ccccc1NC(=O)NCC(=O)NNC(=O)Nc1ccc(Cl)c([N+](=O)[O-])c1
inactive: [2] 92 % of control | [3] 92 % of control | [12] 97 % of control

CN(Cc1ccccc1)CC1(CO)CC=CCC1 (stereo not given)
inactive: endpoint: mean survival time, dose: 75.0 mg/kg/injection, schedule: Q01DX001 (ip), vehicle: saline 97 % of control | endpoint: mean survival time, dose: 150.0 mg/kg/injection, schedule: Q01DX001 (ip), vehicle: saline 100 % of control

CNC(=O)ON(C(C)=O)C(=O)NC
inactive: [7] 100 % of control and 107 % of control | [9] 107 % of control and 109 % of control | endpoint: mean survival time, dose: 50.0 mg/kg/injection, schedule: Q01DX009 (ip), vehicle: saline 114 % of control and 109 % of control

CCCCCCCCC(=O)CC
inactive: [4] 98 % of control | [5] 98 % of control | [6] 93 % of control

C[CH2][Sn]1([CH2]C)[O]C2C(CO)OC(n3cnc4c(=O)[nH]c(N)nc43)C2[O]1 (stereo not given)
inactive: endpoint: mean survival time, dose: 0.78 mg/kg/injection, schedule: Q01DX005 (ip), vehicle: other 100 % of control | endpoint: mean survival time, dose: 1.56 mg/kg/injection, schedule: Q01DX005 (ip), vehicle: other 100 % of control | endpoint: mean survival time, dose: 3.13 mg/kg/injection, schedule: Q01DX005 (ip), vehicle: other 104 % of control | endpoint: mean survival time, dose: 6.25 mg/kg/injection, schedule: Q01DX005 (ip), vehicle: other 102 % of control | endpoint: mean survival time, dose: 12.5 mg/kg/injection, schedule: Q01DX005 (ip), vehicle: other 96 % of control and 110 % of control

COC(=O)CC/C=C\Cc1c(OC)c(C)c2c(c1OC=O)C(=O)OC2
inactive: [13] 108 % of control | endpoint: mean survival time, dose: 200.0 mg/kg/injection, schedule: Q04DX002 (ip), vehicle: saline with Tween-80 108 % of control | endpoint: median survival time, dose: 100.0 mg/kg/injection, schedule: Q04DX002 (ip), vehicle: saline with Tween-80 112 % of control | endpoint: median survival time, dose: 200.0 mg/kg/injection, schedule: Q04DX002 (ip), vehicle: saline with Tween-80 112 % of control

O=CO.[Cu+2]
inactive: endpoint: mean survival time, dose: 5.0 mg/kg/injection, schedule: Q01DX001 (ip), vehicle: saline 90 % of control | endpoint: mean survival time, dose: 10.0 mg/kg/injection, schedule: Q01DX001 (ip), vehicle: saline 98 % of control

C=CC[n+]1ccc2ccccc2c1
inactive: endpoint: mean survival time, dose: 100.0 mg/kg/injection, schedule: Q04DX003 (ip), vehicle: saline sonified 97 % of control

CCCCC#CCOCC(O)CCl (stereo not given)
inactive: endpoint: mean survival time, dose: 25.0 mg/kg/injection, schedule: Q01DX009 (ip), vehicle: water 95 % of control | endpoint: mean survival time, dose: 50.0 mg/kg/injection, schedule: Q01DX009 (ip), vehicle: water 107 % of control | endpoint: mean survival time, dose: 100.0 mg/kg/injection, schedule: Q01DX009 (ip), vehicle: water 103 % of control | endpoint: mean survival time, dose: 200.0 mg/kg/injection, schedule: Q01DX009 (ip), vehicle: water 100 % of control

C1=CC2CCC[N-]C2N1.C1=CC2CCC[N-]C2N1.[I][Pt+2][I] (stereo not given)
inactive: [10] 98 % of control | [11] 101 % of control | [4] 102 % of control | [5] 107 % of control

CN(C)NC=O
inactive: endpoint: mean survival time, dose: 100.0 mg/kg/injection, schedule: Q04DX002 (ip), vehicle: saline 101 % of control | endpoint: mean survival time, dose: 200.0 mg/kg/injection, schedule: Q04DX002 (ip), vehicle: saline 101 % of control | endpoint: mean survival time, dose: 400.0 mg/kg/injection, schedule: Q04DX002 (ip), vehicle: saline 101 % of control

Cc1c2ccccc2c(CN2CC(O)CC2C(=O)O)c2ccccc12 (stereo not given)
inactive: [14] 94 % of control | [15] 93 % of control | [16] 87 % of control

c1cc2c(cc1-c1nnc(-c3ccc4c(c3)OCO4)nn1)OCO2
inactive: endpoint: mean survival time, dose: 12.5 mg/kg/injection, schedule: Q01DX001 (ip), vehicle: saline with Tween-80 91 % of control | endpoint: mean survival time, dose: 12.5 mg/kg/injection, schedule: Q01DX009 (ip), vehicle: saline with Tween-80 94 % of control | endpoint: mean survival time, dose: 25.0 mg/kg/injection, schedule: Q01DX001 (ip), vehicle: saline with Tween-80 90 % of control | [8] 96 % of control | endpoint: mean survival time, dose: 50.0 mg/kg/injection, schedule: Q01DX001 (ip), vehicle: saline with Tween-80 95 % of control | [1] 88 % of control

O=C(OCc1ccccc1)C(Cl)(Cl)Cl
inactive: [14] 107 % of control | [15] 103 % of control | [16] 96 % of control

CC(=O)O.[Ni]
inactive: endpoint: mean survival time, dose: 40.0 mg/kg/injection, schedule: Q01DX001 (ip), vehicle: saline 118 % of control

O=C(Nc1cccc2c1C(=O)c1ccc(Nc3cc(NC(=O)c4ccccc4)c4c(c3)C(=O)c3ccccc3C4=O)cc1C2=O)c1ccccc1
inactive: [2] 106 % of control | [14] 102 % of control | [3] 102 % of control | [15] 102 % of control | [12] 119 % of control | [16] 96 % of control

Oc1ccc(CCl)c2cccnc12
inactive: endpoint: median survival time, dose: 12.5 mg/kg/injection, schedule: Q01DX009 (ip), vehicle: saline 102 % of control | endpoint: median survival time, dose: 25.0 mg/kg/injection, schedule: Q01DX009 (ip), vehicle: saline 102 % of control | endpoint: median survival time, dose: 50.0 mg/kg/injection, schedule: Q01DX009 (ip), vehicle: saline 102 % of control | endpoint: median survival time, dose: 100.0 mg/kg/injection, schedule: Q01DX009 (ip), vehicle: saline 95 % of control

Cn1c(N)nc2nc[nH]c2c1=S
inactive: endpoint: mean survival time, dose: 16.0 mg/kg/injection, schedule: Q01DX008 (iv), vehicle: saline 100 % of control | endpoint: mean survival time, dose: 32.0 mg/kg/injection, schedule: Q01DX008 (iv), vehicle: saline 98 % of control | endpoint: mean survival time, dose: 64.0 mg/kg/injection, schedule: Q01DX008 (iv), vehicle: saline 105 % of control

C(=N/N=C(\C(=N\N=C\c1ccc2c(c1)CCC2)c1ccccc1)c1ccccc1)\c1ccc2c(c1)CCC2
inactive: [14] 96 % of control | [15] 89 % of control | [16] 87 % of control

CSc1ccc(N2C(N)=NC(N)=NC2(C)C)cc1
inactive: endpoint: mean survival time, dose: 25.0 mg/kg/injection, schedule: Q04DX002 (ip), vehicle: saline 95 % of control | endpoint: mean survival time, dose: 50.0 mg/kg/injection, schedule: Q04DX002 (ip), vehicle: saline 91 % of control

COc1ccc(OC)c(NC(=O)NNC(=O)c2ccc(Cl)cc2)c1
inactive: [2] 90 % of control

CCOC(=O)CC/C=C/Cc1c(OC)c(C)c2c(c1OC(=O)NCc1ccc(N(CC)CC)cc1)C(=O)OC2
inactive: [13] 112 % of control

O=C(CCc1ccc(O)cc1)N/N=C/c1ccc2c(c1)OCO2
inactive: [14] 90 % of control | [15] 90 % of control | [16] 88 % of control

COC(=N)C/C=C/CC(=N)OC
inactive: [14] 98 % of control | [15] 95 % of control | [16] 98 % of control

O=CNc1ccccc1Cl
inactive: [2] 101 % of control | [14] 94 % of control | [3] 98 % of control | [15] 95 % of control | [12] 91 % of control | [16] 91 % of control

From PubChem BioAssay AID256 (DTP/NCI, 2004)
